According to patent publication US20030036633A1, “DNA encoding bradykinin B1 receptor” (Merck & Co., Inc., priority 1994, published 2003):
Entries after “also recorded” stand apart in the source; their conditions may differ. Like-named read-outs stand apart in the source and are kept apart here. Residues, ends and D or L forms follow the SMILES beside them.

Assays:
[1] = molecular target: T1, cloned human B1 bradykinin receptor in transiently transfected COS-7 cells (COS 33E9) (Homo sapiens, UniProt P46663); assay: Displacement of 1 nM [3H]des-Arg10kallidin, membrane binding assay, COS 33E9; conditions: for affinity for / displacement of [3H]des-Arg10kallidin from the cloned receptor, in words: cloned B1 receptor expressed in COS-7 cells
T1 construct: the full-length open reading frame of the B1 DNA (encoding a protein of about 40.4 kDa =about base 209 to about base 1267); expressed in transfected cells; host or cells: COS-7 cells, transient electroporation of clone 33E9 (pcDNA3 library vector)
T1 sequence (P46663 1-353): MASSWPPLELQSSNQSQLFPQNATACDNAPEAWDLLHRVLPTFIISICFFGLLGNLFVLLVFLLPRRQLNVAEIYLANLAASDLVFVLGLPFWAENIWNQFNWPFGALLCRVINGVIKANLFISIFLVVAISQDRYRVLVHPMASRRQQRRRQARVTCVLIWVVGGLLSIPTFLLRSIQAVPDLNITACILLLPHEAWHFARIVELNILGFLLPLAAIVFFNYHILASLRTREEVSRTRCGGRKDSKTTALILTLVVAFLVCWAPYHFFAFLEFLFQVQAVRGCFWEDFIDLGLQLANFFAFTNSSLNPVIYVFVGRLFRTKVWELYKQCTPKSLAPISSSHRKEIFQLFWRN
Protocol: Transient expression of the cloned B1 bradykinin receptor in COS-7 cells was accomplished by electroporation using a Biorad Gene Pulser. […] Binding assays were performed at room temperature for 45 minutes. Reactions were terminated by filtration using an Inotech cell harvester onto glass fiber filters (Inotech) that had been briefly soaked in 0.3% polyethyleneimine. The filters were washed five times with 1 ml per well of cold PBS and counted in a liquid scintillation counter. Alternatively, reactions were collected using a Tomtec cell harvester 96 onto 0.3% polyethyleneimine presoaked glass fiber filters (Pharmacia, printed filtermat for use with the 1205 Betaplate). The filter was washed five times with a total of 10 ml per well of cold 1× PBS, dried and sealed in a bag (Pharmacia) containing scintillation fluid. Counting was accomplished using a LKB1205 Betaplate liquid scintillation counter.

[2] = molecular target: T2, B1 receptor in IMR-90 cells (Homo sapiens, UniProt P46663); assay: Displacement of 1 nM [3H]des-Arg10kallidin, membrane binding assay, IMR-90
T2 construct: 33E9) with the B1 receptor in IMR-90 cells (IMR-90); endogenous in cells; host or cells: IMR-90 cells (ATCC CCL 186)
T2 sequence (P46663 1-353): T1 sequence (P46663 1-353)

IMR-90 cells = assay: IL-1beta treatment of IMR-90 cells, number of B1 bradykinin receptors; type: cell-based, human
[3] = molecular target: T3, B1 bradykinin receptor present in human aorta (Homo sapiens, UniProt P46663); assay: Affinity at B1 bradykinin receptor present in human aorta; type: binding; conditions: R.W.R, unpublished data
T3 construct: The B1 bradykinin receptor present in human aorta; from tissue; host or cells: human aorta
T3 sequence (P46663 1-353): T1 sequence (P46663 1-353)

[4] = molecular target: T4, B1 bradykinin receptor in IMR-90 cells (human, UniProt P46663 1-353); assay: displacement of 1 nM [3H]des-Arg10kallidin, membrane binding assay, IMR-90 cells
T4 construct: whole, on cells; Endogenous receptor; also called B1 receptor expressed in IMR-90 cells
T4 sequence (looked up): T1 sequence (P46663 1-353)
Protocol: Binding assays were performed at room temperature for 45 minutes. Reactions were terminated by filtration using an Inotech cell harvester onto glass fiber filters (Inotech) that had been briefly soaked in 0.3% polyethyleneimine. The filters were washed five times with 1 ml per well of cold PBS and counted in a liquid scintillation counter. Alternatively, reactions were collected using a Tomtec cell harvester 96 onto 0.3% polyethyleneimine presoaked glass fiber filters (Pharmacia, printed filtermat for use with the 1205 Betaplate). The filter was washed five times with a total of 10 ml per well of cold 1× PBS, dried and sealed in a bag (Pharmacia) containing scintillation fluid. Counting was accomplished using a LKB₁₂₀₅ Betaplate liquid scintillation counter.
The IC₅₀'s were determined by the displacement of 1 nM [³H]des- Arg¹⁰kallidin in the membrane binding assay described above.

[5] = molecular target: cloned human B1 bradykinin receptor (clone 33E9) (human) (UniProt P46663); assay: displacement of 1 nM [3H]des-Arg10kallidin, membrane binding assay, COS-7 cells transiently transfected with clone 33E9
B1 receptor = molecular target: T5, B1 receptor (Homo sapiens, UniProt P46663); assay: Electrophysiology of cRNA-injected Xenopus oocytes monitoring the Ca2+ sensitive Cl- channel; type: cell-based; conditions: oocytes injected with cRNA of strongest positive pool
T5 construct: expressed in transfected cells; host or cells: Xenopus laevis oocytes injected with cRNA from a pool of about 800 library clones
T5 sequence (P46663 1-353): T1 sequence (P46663 1-353)

[6] = displacement of 1 nM [3H]des-Arg10kallidin, membranes of transiently transfected COS-7 cells, read-out: IC50, COS 33E9
[7] = displacement of 1 nM [3H]des-Arg10kallidin, IMR-90 membranes, read-out: IC50, IMR-90

Compound: CC[C@H](C)[C@H](NC(=O)[C@H](Cc1ccc(O)cc1)NC(=O)[C@@H]1CCCN1C(=O)[C@H](CCCNC(=N)N)NC(=O)[C@H](CCCNC(=N)N)NC(C)=O)C(=O)N[C@@H](CC(C)C)C(=O)O [Acetylated Neurotensin(8-13)]
- IC50 [1]: > 10 µM
- IC50 [2]: > 10 µM

Compound: CC[C@H](C)[C@H](NC(=O)[C@H](Cc1ccc(O)cc1)NC(=O)[C@@H](NC(=O)[C@H](CCCNC(=N)N)NC(=O)[C@@H](N)CC(=O)O)C(C)C)C(=O)N[C@@H](Cc1cnc[nH]1)C(=O)N1CCC[C@H]1C(=O)N[C@@H](Cc1ccccc1)C(=O)O [Angiotensin II]
- IC50 [1, 6]: > 10 µM
- IC50 [2, 7]: > 10 µM

Compound: NC(=O)CC[C@@H]1NC(=O)[C@H](Cc2ccccc2)NC(=O)[C@H](Cc2ccc(O)cc2)NC(=O)[C@@H](N)CSSC[C@@H](C(=O)N2CCC[C@H]2C(=O)N[C@@H](CCCN=C(N)N)C(=O)NCC(N)=O)NC(=O)[C@H](CC(N)=O)NC1=O [Arg Vasopressin]
- IC50 [1]: > 10 µM
- IC50 [2]: > 10 µM

Compound: N=C(N)NCCC[C@H](N)C(=O)N1CCC[C@H]1C(=O)N1CCC[C@H]1C(=O)NCC(=O)N[C@@H](Cc1ccccc1)C(=O)N[C@@H](CO)C(=O)N1CCC[C@H]1C(=O)O [Bradykinin(1-7)] (H-RPPGFSP-OH)
- IC50 [1]: > 10 µM
- IC50 [2]: > 10 µM

Compound: N=C(N)NCCC[C@H](NC(=O)[C@H](Cc1ccccc1)NC(=O)[C@@H]1CCCN1C(=O)[C@H](CO)NC(=O)[C@H](Cc1ccccc1)NC(=O)CNC(=O)[C@@H]1CCCN1C(=O)[C@@H]1CCCN1)C(=O)O [Bradykinin(2-9)] (H-PPGFSPFR-OH; N-terminus and C-terminus assumed)
- IC50 [1, 6]: > 10 µM
- IC50 [2, 7]: > 10 µM

Compound: NC(N)=NCCC[C@H](NC(=O)[C@H](Cc1ccccc1)NC(=O)[C@@H]1CCCN1C(=O)[C@H](CO)NC(=O)[C@H](Cc1ccccc1)NC(=O)CNC(=O)[C@@H]1CCCN1C(=O)[C@@H]1CCCN1C(=O)[C@@H](N)CCCN=C(N)N)C(=O)O [Bradykinin] (H-RPPGFSPFR-OH)
- IC50 [1]: > 10 µM
- IC50 [2]: > 10 µM

Compound: CC[C@H](C)[C@H](NC(=O)[C@H](CCCNC(=N)N)NC(=O)[C@H](CCCNC(=N)N)NC(=O)[C@H](CC(C)C)NC(=O)[C@H](Cc1ccccc1)NC(=O)CNC(=O)CNC(=O)[C@@H](N)Cc1ccc(O)cc1)C(=O)N[C@@H](CCCNC(=N)N)C(=O)N1CCC[C@H]1C(=O)N[C@@H](CCCCN)C(=O)N[C@@H](CC(C)C)C(=O)N[C@@H](CCCCN)C(=O)N[C@@H](Cc1c[nH]c2ccccc12)C(=O)N[C@@H](CC(=O)O)C(=O)N[C@@H](CC(N)=O)C(=O)N[C@@H](CCC(N)=O)C(=O)O [Dynorphin(1-17)]
- IC50 [1]: > 7 µM
- IC50 [2]: > 7 µM

Compound: CC[C@H](C)[C@H](NC(=O)[C@H](CC(=O)O)NC(=O)[C@H](CC(C)C)NC(=O)[C@H](Cc1cnc[nH]1)NC(=O)[C@@H]1CSSC[C@H](N)C(=O)N[C@@H](CO)C(=O)N[C@H]2CSSC[C@H](NC(=O)[C@H](CCC(=O)O)NC(=O)[C@H](CCCCN)NC(=O)[C@H](CC(=O)O)NC(=O)[C@H](CCSC)NC(=O)[C@H](CC(C)C)NC(=O)[C@H](CO)NC(=O)[C@H](CO)NC2=O)C(=O)N[C@@H](C(C)C)C(=O)N[C@@H](Cc2ccc(O)cc2)C(=O)N[C@@H](Cc2ccccc2)C(=O)N1)C(=O)N[C@H](C(=O)N[C@@H](Cc1c[nH]c2ccccc12)C(=O)O)[C@@H](C)CC [Endothelin I]
- IC50 [1, 6]: > 1 µM
- IC50 [2, 7]: > 1 µM

Compound: NC(N)=NCCC[C@@H](N)C(=O)N[C@@H](CCCN=C(N)N)C(=O)N1CCC[C@H]1C(=O)N1C[C@H](O)C[C@H]1C(=O)NCC(=O)N[C@@H](Cc1cccs1)C(=O)N[C@@H](CO)C(=O)N1Cc2ccccc2C[C@@H]1C(=O)N1[C@H](C(=O)N[C@@H](CCCN=C(N)N)C(=O)O)C[C@@H]2CCCC[C@@H]21 [Hoe 140]
- IC50 [1, 6]: > 10 µM
- IC50 [2, 7]: > 10 µM

Compound: CC(C)C[C@H](NC(=O)[C@H](Cc1ccccc1)NC(=O)CNC(=O)CNC(=O)[C@@H](N)Cc1ccc(O)cc1)C(=O)O [Leu-Enkephalin]
- IC50 [1]: > 10 µM
- IC50 [2]: > 10 µM

Compound: CC[C@H](C)[C@@H]1NC(=O)[C@H](Cc2ccc(O)cc2)NC(=O)[C@@H](N)CSSC[C@@H](C(=O)N2CCC[C@H]2C(=O)N[C@@H](CC(C)C)C(=O)NCC(N)=O)NC(=O)[C@H](CC(N)=O)NC(=O)[C@H](CCC(N)=O)NC1=O [Oxytocin]
- IC50 [1, 6]: > 10 µM
- IC50 [2, 7]: > 10 µM

Compound: CSCC[C@H](NC(=O)[C@H](CC(C)C)NC(=O)CNC(=O)[C@H](Cc1ccccc1)NC(=O)[C@H](Cc1ccccc1)NC(=O)[C@H](CCC(N)=O)NC(=O)[C@H](CCC(N)=O)NC(=O)[C@@H]1CCCN1C(=O)[C@H](CCCCN)NC(=O)[C@@H]1CCCN1C(=O)[C@@H](N)CCCN=C(N)N)C(N)=O [Substance P]
- IC50 [1, 6]: > 10 µM
- IC50 [2, 7]: > 10 µM

Compound: IL-1β: cytokine IL-1β (R & D Systems)
- stimulation of the number of B1 bradykinin receptors (IMR-90 cells): approximately 7 fold

Compound: [des-Arg^10],[3,4-^3H(N)]-kallidin [[^3H]des-Arg^10kallidin]
- affinity for / displacement of [3H]des-Arg10kallidin from the cloned receptor, in words [1]: high affinity binding

Compound: des-Arg^9Leu^8bradykinin
- affinity for / displacement of [3H]des-Arg10kallidin from the cloned receptor, in words [1]: high affinity binding

Compound: des-Arg^9bradykinin
- affinity [3]: > 1000 nM
- affinity for / displacement of [3H]des-Arg10kallidin from the cloned receptor, in words [1]: relatively low affinity
- affinity for the B1 receptor in IMR-90 cells, in words ([2]; IMR-90 cells): relatively low affinity

Compound: des-Arg^10HOE 140 (peptide)
- IC50 [4]: 0.04 µM
- IC50 [5]: 0.094 µM

Compound: des-Arg^10Leu^9kallidin
- affinity for / displacement of [3H]des-Arg10kallidin from the cloned receptor, in words [1]: high affinity binding; also recorded: effectively displaces
- block of des-Arg10kallidin response (B1 receptor): blocked

Compound: des-Arg^10kallidin
- agonist response of Ca2+ sensitive Cl- channel (B1 receptor): produced a response
